Drawing on patent publication US7767854B2, “N-substituted phenylacetamide derivative and pharmaceutical composition containing the same” (Dainippon Sumitomo Pharma Co., Ltd., priority 2005, dated 2010), this text covers change in vivo for 43 molecules.

The first assay deals with male Std: Wistar rats. Kind of assay: Pain test by plantar thermal stimuli (plantar test). The class given is in vivo. The conditions noted are these: Rattus norvegicus, 4 h, 50 μl of 0.03% (W/V) solution i.pl. into right hind-paw; 4 hours after administration; cut-off 25 seconds; read-out: % MPE (percent maximum possible effect, withdrawal latency). The method, then: Experiment 1: Pain Test by Plantar Thermal Stimuli (Plantar Test)
In the present experiment, the analgesic effect of the compounds of the invention was evaluated by the measurements of withdrawal latency to noxious thermal stimuli, according to the methods of Hargreaves, et al., [Pain, 32, 77-88 (1988)] and Field, et al., [J. Pharmacol. Exp. Ther., 282, 1242-1246 (1997)].
In detail, the experiment was carried out using male Std: Wistar rats (4 rats/group; body weight, 170-220 g) and a plantar test device (Model 7370, Ugo Basile) with infrared beam as a heat source. The rat was put into an experimental cage that is an acrylic box whose bottom is made of glass and was habituated therein. Then, the infrared beam was radiated to the plantar surface of right hind-paw thereof through the floor glass, and the withdrawal latency was measured every 5 minutes, 3 times. The intension of the infrared beam was adjusted so that the pre-drug administration latency was about 10 seconds. The cut-off time was set at 25 seconds in order to prevent a paw burn. The average of the latencies was calculated, and then it was defined as the value of the pre-drug administration latency of the test compound.
Next day, 50 μl of each solution of the test compounds [the compounds of the invention, the compounds of the comparative Examples and capsaicin (Sigma, U.S.A.)] or 50 μl of vehicle solvent (reference) was given to a right hind-paw of the rat by intraplantar injection (i. pl.) using a micro-syringe. The test compound was dissolved in a saline solution containing 10% Tween 80 (Sigma, U.S.A) and 10% ethanol to give a 0.03% (W/V) solution. The saline solution containing 10% Tween 80 and 10% ethanol was used as reference. Four hours after i.pl. administration of each the test compound or the reference to the rats, the experiment mentioned above was carried out, and then the post-drug administration latency was measured. The analgesic effects thereof were calculated with the following formula, which was known as a percent maximum possible effect (% MPE). % MPE=[(the value of post-drug latency−the value of pre-drug latency)/(25*−the value of pre-drug latency)]×100 *: cut-off time
Turning to `COc1cc(CC(=O)NC2CCC(C)CC2)ccc1O` (stereo not shown) [Comparative Example 1, 2-(4-hydroxy-3-methoxyphenyl)-N-(4-methyl-cyclohexyl)acetamide, reference compound], the change in vivo at 300 µg/mL was found to be 23.3%.

For the molecule `COc1cc(CC(=O)NC2CCCCC2)ccc1O` [Comparative Example 2, N-cyclohexyl-2-(4-hydroxy-3-methoxyphenyl)-acetamide, reference compound], the change in vivo at 300 µg/mL amounted to 30.6%. On the same count and under the same terms, under `CCCCCC1CCC(NC(=O)Cc2ccc(O)c(OC)c2)CC1` (stereo not shown) [Example 3, 2-(4-hydroxy-3-methoxyphenyl)-N-(4-pentyl-cyclohexyl)acetamide] stands 89.9%; under `CCC(C)(C)C1CCC(NC(=O)Cc2ccc(O)c(OC)c2)CC1` (stereo not shown) [Example 4], 56.6%; under `COc1cc(CC(=O)NC2CCC(C3CCCCC3)CC2)ccc1O` (stereo not shown) [Example 5], 59.2%.

`COc1cc(CC(=O)NC2CCC(c3ccccc3)CC2)ccc1O` (stereo not shown) [Example 6]: the change in vivo at 300 µg/mL came to 82.6%.

As for `CCCC[C@H]1CC[C@@H](NC(=O)Cc2ccc(O)c(OC)c2)CC1` [Example 7], the change in vivo at 300 µg/mL came to 78.6%. On the same count and under the same terms, to `CCCC1(CCC)CCC(NC(=O)Cc2ccc(O)c(OC)c2)CC1` [Example 9, N-(4,4-dipropylcyclohexyl)-2-(4-hydroxy-3-methoxyphenyl)acetamide] belongs 64.7%; to `COc1cc(CC(=O)N[C@H]2CC[C@H](/C=C\C(C)C)CC2)ccc1O` [Example 14, 2-(4-hydroxy-3-methoxyphenyl)-N-{trans-4-[(Z)-3-methyl-1-butenyl]cyclohexyl}acetamide], 100%; to `COc1cc(CC(=O)N[C@H]2CC[C@H](/C=C\CC(C)C)CC2)ccc1O` [Example 15], 94.4%. On the same count and under the same terms, under `CCC/C=C\[C@H]1CC[C@H](NC(=O)Cc2ccc(O)c(OC)c2)CC1` [Example 17] stands 74.9%; under `COc1cc(CC(=O)N[C@H]2CC[C@H](/C=C\C3CC3)CC2)ccc1O` [Example 18], 80.5%. In the case of `C=C/C=C/[C@H]1CC[C@H](NC(=O)Cc2ccc(O)c(OC)c2)CC1` [Example 19], the change in vivo at 300 µg/mL amounted to 35.9%. On the same count and under the same terms, under `CCOC(=O)/C=C/[C@H]1CC[C@H](NC(=O)Cc2ccc(O)c(OC)c2)CC1` [Example 20] stands 53.8%; under `COc1cc(CC(=O)N[C@H]2CC[C@H](/C=C/C(C)=O)CC2)ccc1O` [Example 21], 50.3%; under `COc1cc(CC(=O)N[C@H]2CC[C@H](/C=C\CC(F)(F)F)CC2)ccc1O` [Example 23], 77.9%. The same measure, in the same setting: under `COc1cc(CC(=O)N[C@H]2CC[C@H](C=C(C)C)CC2)ccc1O` [Example 24] stands 72.4%. The same measure, in the same setting: to `COc1cc(CC(=O)N[C@H]2CC[C@H](C=C3CCCC3)CC2)ccc1O` [Example 25] belongs 98.3%.

Turning to `CCCC[C@H]1CC[C@H](NC(=O)Cc2ccc(O)c(OC)c2)CC1` [Example 28], the change in vivo at 300 µg/mL amounted to 87.1%. Same read-out and setting: under `CCOC(=O)CC[C@H]1CC[C@H](NC(=O)Cc2ccc(O)c(OC)c2)CC1` [Example 29] stands 45.8%; under `CCCCC[C@H]1CC[C@H](NC(=O)Cc2ccc(O)c(OC)c2)CC1` [Example 30], 71.3%; under `CCC[C@H]1CC[C@H](NC(=O)Cc2ccc(O)c(OC)c2)CC1` [Example 31], 54.3%. Still for that read-out and setting: to `COc1cc(CC(=O)N[C@H]2CC[C@H](CCC3CC3)CC2)ccc1O` [Example 32] belongs 85.5%; to `COc1cc(CC(=O)N[C@H]2CC[C@H](CC(C)C)CC2)ccc1O` [Example 33], 73.3%; to `COc1cc(CC(=O)N[C@H]2CC[C@H](CC3CCCC3)CC2)ccc1O` [Example 34], 97.8%. Still for that read-out and setting: under `CCCCO[C@H]1CC[C@H](NC(=O)Cc2ccc(O)c(OC)c2)CC1` [Example 35, N-(trans-4-butoxycyclohexyl)-2-(4-hydroxy-3-methoxyphenyl)acetamide] stands 42.8%. As to `COc1cc(CC(=O)N[C@H]2CC[C@H](OCCC(C)C)CC2)ccc1O` [Example 37], the change in vivo at 300 µg/mL turned out to be 49.9%. On the same count and under the same terms, to `COc1cc(CC(=O)N[C@H]2CC[C@H](OCCCC(F)(F)F)CC2)ccc1O` [Example 38] belongs 57.6%. The same measure, in the same setting: under `CCCCOC[C@H]1CC[C@H](NC(=O)Cc2ccc(O)c(OC)c2)CC1` [Example 39] stands 39.6%; under `COc1cc(CC(=O)N[C@H]2CC[C@H](OC(=O)c3ccc(C)cc3)CC2)ccc1O` [Example 40, 2-(4-hydroxy-3-methoxyphenyl)-N-[trans-4-(4-methylphenylcarbonyloxy)cyclohexyl]acetamide], 48.3%; under `COc1cc(CC(=O)N[C@H]2CC[C@@H](CC=C(C)C)CC2)ccc1O` [Example 47, 2-(4-hydroxy-3-methoxyphenyl)-N-[cis-4-(3-methyl-2-butenyl)cyclohexyl]acetamide], 69%. Still for that read-out and setting: to `COc1cc(CC(=O)N[C@H]2CC[C@@H](CCC(C)C)CC2)ccc1O` [Example 48, 2-(4-hydroxy-3-methoxyphenyl)-N-[cis-4-(3-methylbutyl)cyclohexyl]acetamide] belongs 79.6%; to `CC/C=C\[C@H]1CC[C@@H](NC(=O)Cc2ccc(O)c(OC)c2)CC1` [Example 49, N-{cis-4-[(Z)-1-butenyl]cyclohexyl}-2-(4-hydroxy-3-methoxyphenyl)acetamide], 97%. For the molecule `C/C=C\[C@H]1CC[C@@H](NC(=O)Cc2ccc(O)c(OC)c2)CC1` [Example 50], the change in vivo at 300 µg/mL was found to be 48.2%. Still for that read-out and setting: to `COc1cc(CC(=O)N[C@H]2CC[C@@H](/C=C\CC(C)C)CC2)ccc1O` [Example 51] belongs 96.4%; to `CC/C=C/[C@H]1CC[C@H](NC(=O)Cc2ccc(O)c(OC)c2)CC1` [Example 52, N-{trans-4-[(E)-1-butenyl]cyclohexyl}-2-(4-hydroxy-3-methoxyphenyl)acetamide], 91.5%.

Regarding `C/C=C/[C@H]1CC[C@H](NC(=O)Cc2ccc(O)c(OC)c2)CC1` [Example 53], the change in vivo at 300 µg/mL worked out at 47.1%. Still for that read-out and setting: under `CCC/C=C/[C@H]1CC[C@H](NC(=O)Cc2ccc(O)c(OC)c2)CC1` [Example 54] stands 82.5%; under `COc1cc(CC(=O)N[C@H]2CC[C@H](/C=C/C3CC3)CC2)ccc1O` [Example 55], 55.4%. Still for that read-out and setting: under `COc1cc(CC(=O)N[C@H]2CC[C@H](/C=C/CC(C)C)CC2)ccc1O` [Example 56] stands 70.2%; under `COc1cc(CC(=O)N[C@H]2CC[C@H](/C=C/C3CCC3)CC2)ccc1O` [Example 57], 54.2%; under `COc1cc(CC(=O)N[C@H]2CC[C@H](/C=C/CC3CC3)CC2)ccc1O` [Example 58], 48.6%.

Staying with this assay, now noted: Rattus norvegicus; 50 μl of 0.03% (W/V) solution i.pl. into right hind-paw; 4 hours after administration; cut-off 25 seconds; read-out: % MPE (percent maximum possible effect, withdrawal latency).
Take `COc1cc(CC(=O)N[C@H]2CC[C@H](OC(=O)Cc3ccccc3)CC2)ccc1O` [Example 41, N-[trans-4-(benzylcarbonyloxy)cyclohexyl]-2-(4-hydroxy-3-methoxyphenyl)acetamide]: the change in vivo at 300 µg/mL turned out to be 45.8%.
